Data: patent publication US7138361B2, “Herbicidal heterocycles” (E. I. du Pont de Nemours and Company, priority 2000, dated 2006)

Key:
Type in all cases: in vivo
[1] = tested on: blackgrass (Alopecurus myosuroides); experiment: Test B postemergence; conditions: 13 to 15 days
Method in brief: (§1)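 Post-treatment, species sat 13–15 days under greenhouse conditions before visual scoring against controls, 0 (no effect) through 100 (complete control). Application preemergence to sown seeds or postemergence at 1- to 4-leaf stage, using a non-phytotoxic solvent/surfactant formulation.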

[2] = tested on: corn (Zea mays); experiment: Test B postemergence; conditions: 13 to 15 days
Method in brief: as §1

[3] = tested on: cocklebur (Xanthium strumarium); experiment: Test B postemergence; conditions: 13 to 15 days
Method in brief: as §1

[4] = tested on: wheat (Triticum aestivum); experiment: Test B postemergence; conditions: 13 to 15 days
Method in brief: as §1

[5] = tested on: wild oat (Avena fatua); experiment: Test B postemergence; conditions: 13 to 15 days
Method in brief: as §1

[6] = tested on: velvetleaf (Abutilon theophrasti); experiment: Test B postemergence; conditions: 13 to 15 days
Method in brief: as §1

[7] = tested on: morning glory (Ipomoea hederacea); experiment: Test B postemergence; conditions: 13 to 15 days
Method in brief: as §1

[8] = tested on: crabgrass (Digitaria sanguinalis); experiment: Test B postemergence; conditions: 13 to 15 days
Method in brief: as §1

[9] = tested on: barnyardgrass (Echinochloa crus-galli); experiment: Test B postemergence; conditions: 13 to 15 days
Method in brief: as §1

[10] = tested on: pigweed (Amaranthus retroflexus); experiment: Test B postemergence; conditions: 13 to 15 days
Method in brief: as §1

[11] = tested on: Surinam grass (Brachiaria decumbens); experiment: Test B postemergence; conditions: 13 to 15 days
Method in brief: as §1

[12] = tested on: giant foxtail (Setaria faberii); experiment: Test B postemergence; conditions: 13 to 15 days
Method in brief: as §1

[13] = tested on: lambsquarters (Chenopodium album); experiment: Test B postemergence; conditions: 13 to 15 days
Method in brief: as §1

[14] = tested on: morningglory (Ipomoea hederacea); experiment: Test C preemergence
Method in brief: (§2)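 Each compound was dissolved in a non-phytotoxic solvent system containing a surfactant and sprayed either on freshly planted seeds (preemergence) or on young plants, 2 to 18 cm high (postemergence). Ratings after 12 to 14 greenhouse days ran from 0, no effect, to 100, complete control.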

[15] = tested on: yellow nutsedge (Cyperus esculentus); experiment: Test C preemergence
Method in brief: as §2

[16] = tested on: johnsongrass (Sorghum halepense); experiment: Test C preemergence
Method in brief: as §2

[17] = tested on: corn (Zea mays); experiment: Test C preemergence
Method in brief: as §2

[18] = tested on: velvetleaf (Abutilon theophrasti); experiment: Test C preemergence
Method in brief: as §2

[19] = tested on: kochia (Kochia scoparia); experiment: Test C preemergence
Method in brief: as §2

[20] = tested on: giant foxtail (Setaria faberii); experiment: Test C preemergence
Method in brief: as §2

[21] = tested on: bermudagrass (Cynodon dactylon); experiment: Test C preemergence
Method in brief: as §2

[22] = tested on: Sunflower; experiment: Test C preemergence
[23] = tested on: Sunflower; experiment: Test C preemergence; conditions: Rate 250 g/ha, visual evaluation after 12 to 14 days
[24] = Rate 125 g/ha, scale 0 (no effect) to 100 (complete control)
[25] = Rate 500 g/ha, scale 0 to 100, 0 is no effect, 100 is complete control
[26] = Preemergence, Rate 500 g/ha, scale 0 to 100
[27] = Rate 62 g/ha, scale 0 to 100, 0 no effect, 100 complete control
[28] = preemergence, Rate 250 g/ha, visual evaluation after 12 to 14 days
[29] = preemergence, Rate 125 g/ha, scale 0 to 100, 0 no effect, 100 complete control

O=C1C(n2ccc(C3CCC3)n2)SCN1c1cccc(OC(F)F)c1 (stereo not drawn) [Compound 45]
Plant response rating, Blackgrass [1, 24]: 0
Plant response rating, Blackgrass [1, 25]: 0
Plant response rating, Corn [2, 24]: 0
Plant response rating, Corn [2, 25]: 0
Plant response rating, Cocklebur [3, 24]: 20
Plant response rating, Cocklebur [3, 25]: 40
Plant response rating, Wheat [4, 24]: 0
Plant response rating, Wheat [4, 25]: 0
Plant response rating, Wild Oat [5, 24]: 0
Plant response rating, Wild Oat [5, 25]: 0
Plant response rating, Velvetleaf [6, 24]: 0
Plant response rating, Velvetleaf [6, 25]: 0
Plant response rating, Morningglory [7, 24]: 0
Plant response rating, Morningglory [7, 25]: 0
Plant response rating, Crabgrass [8, 24]: 0
Plant response rating, Crabgrass [8, 25]: 0
Plant response rating, Barnyardgrass [9, 24]: 30
Plant response rating, Barnyardgrass [9, 25]: 100
Plant response rating, Pigweed [10, 24]: 0
Plant response rating, Pigweed [10, 25]: 0
Plant response rating, Surinam grass [11, 24]: 0
Plant response rating, Surinam grass [11, 25]: 0
Plant response rating, Foxtail, Giant [12, 24]: 0
Plant response rating, Foxtail, Giant [12, 25]: 0
Plant response rating, Lambsquarters [13, 24]: 0
Plant response rating, Lambsquarters [13, 25]: 0
Plant response rating, Morningglory [14, 26]: 0
Plant response rating, Morningglory [14, 27]: 0
Plant response rating (0 to 100), Morningglory [14, 28]: 0
Plant response rating, Morningglory [14, 29]: 0
Plant response rating, Nutsedge [15, 26]: 100
Plant response rating (0 to 100), Nutsedge [15, 28]: 60
Plant response rating, Nutsedge [15, 29]: 0
Plant response rating, Johnsongrass [16, 26]: 100
Plant response rating, Johnsongrass [16, 27]: 0
Plant response rating (0 to 100), Johnsongrass [16, 28]: 50
Plant response rating, Johnsongrass [16, 29]: 0
Plant response rating, Corn [17, 26]: 0
Plant response rating, Corn [17, 27]: 0
Plant response rating (0 to 100), Corn [17, 28]: 0
Plant response rating, Corn [17, 29]: 0
Plant response rating, Velvetleaf [18, 26]: 30
Plant response rating, Velvetleaf [18, 27]: 0
Plant response rating (0 to 100), Velvetleaf [18, 28]: 20
Plant response rating, Velvetleaf [18, 29]: 0
Plant response rating, Kochia [19, 26]: 100
Plant response rating, Kochia [19, 27]: 20
Plant response rating (0 to 100), Kochia [19, 28]: 90
Plant response rating, Kochia [19, 29]: 60
Plant response rating, Foxtail, Giant [20, 26]: 90
Plant response rating, Foxtail, Giant [20, 27]: 30
Plant response rating (0 to 100), Foxtail, Giant [20, 28]: 40
Plant response rating, Foxtail, Giant [20, 29]: 40
Plant response rating, Bermudagrass [21, 26]: 100
Plant response rating, Bermudagrass [21, 27]: 50
Plant response rating (0 to 100 where 0 is no effect and 100 is complete control), Bermudagrass [21, 28]: 100
Plant response rating, Bermudagrass [21, 29]: 90
Plant response rating, Sunflower [22, 27]: 20
Plant response rating, Sunflower ([22]; Rate 500 g/ha, scale 0 to 100): 70
Plant response rating (0 to 100), Sunflower [23]: 20
